The values below come from patent publication US10517889B2, “Modulators of SMAD7 expression” (Ionis Pharmaceuticals, Inc., priority 2017, dated 2019).

Strand notation (5' to 3'): a small letter for the sugar, then the base; units joined by * are phosphorothioate-linked, units joined directly phosphodiester-linked; [ ] holds rarer units or linkages, { } end groups; capitals alone tell only the bases. k = constrained ethyl (cEt); [5mC] = 5-methylcytosine; d = 2'-deoxy (DNA)

One data set has as its system human SMAD7 mRNA. The data set is described as follows: Antisense inhibition of human SMAD7 mRNA expression in Hep3B cells by 3-10-3 cEt gapmers, 10,000 nM, electroporation (Example 2). The format is cell-based. As to conditions: Hep3B cells, 10,000 nM antisense oligonucleotide, electroporation, approximately 24 hours, RT-PCR primer probe set RTS5062, relative to untreated control cells. The procedure, abridged:
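Hep3B cells (20,000 per well) were electroporated with 10,000 nM 16-mer 3-10-3 cEt gapmer (phosphorothioate, 5-methylcytosine). After about 24 h, SMAD7 mRNA was quantified by qRT-PCR with primer probe set RTS5062, normalised to RIBOGREEN total RNA, and expressed as percent inhibition versus untreated cells.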
As for “799914 (antisense k[5mC]*kT*kG*dA*dG*dA*dG*dA*dG*dG*d[5mC]*d[5mC]*dT*k[5mC]*kA*kG) [compound 799914]”, the % Inhibition (usually the drop in the measured response relative to a control, in per cent) is 24%. In the case of “799915 (antisense kG*k[5mC]*kT*dG*dA*d[5mC]*dG*d[5mC]*dG*dG*d[5mC]*dT*dT*k[5mC]*k[5mC]*kT) [compound 799915]”, the “% Inhibition” value amounted to 52%. As to “799916 (antisense k[5mC]*kA*k[5mC]*dA*dA*dA*dT*d[5mC]*dA*dA*dA*dA*dG*k[5mC]*kT*k[5mC]) [compound 799916]”, the “% Inhibition” value is 47%. The same measure, in the same setting: under “799917 (antisense kT*kG*kG*dA*dG*dA*dA*dT*dG*dT*dA*dA*dT*kT*kG*kA) [compound 799917]” stands 17%.

For “799918 (antisense k[5mC]*kA*kT*dT*dT*dA*dT*d[5mC]*dT*d[5mC]*dG*d[5mC]*d[5mC]*kA*kT*kG) [compound 799918]”, the “% Inhibition” value worked out at 16%. Still for that read-out and setting: under “799919 (antisense kT*k[5mC]*k[5mC]*dT*dA*dA*dG*dA*dG*d[5mC]*dA*dT*dT*kT*kA*kT) [compound 799919]” stands 0%; under “799930 (antisense kT*k[5mC]*kT*dT*dT*dT*dA*dT*d[5mC]*dA*d[5mC]*dT*dG*kT*k[5mC]*kA) [compound 799930]”, 8%; under “799932 (antisense kT*k[5mC]*kA*dA*dG*dA*dG*dA*d[5mC]*dG*dG*dT*dG*kA*kG*k[5mC]) [compound 799932]”, 0%. Same read-out and setting: the result for “799933 (antisense kT*kA*k[5mC]*dT*dA*dT*dT*d[5mC]*dA*dT*d[5mC]*dA*d[5mC]*k[5mC]*k[5mC]*kT) [compound 799933]” reads 22%; that for “799934 (antisense kA*k[5mC]*kT*dT*dT*dT*dT*dA*d[5mC]*dT*d[5mC]*dT*dG*kT*k[5mC]*kT) [compound 799934]”, 61%; that for “799935 (antisense kA*kG*kA*dA*dA*dT*dG*dA*d[5mC]*dT*dT*dT*dT*kT*kA*k[5mC]) [compound 799935]”, 42%. With “799936 (antisense k[5mC]*kT*kT*dT*dA*dA*dT*dT*dT*d[5mC]*dA*dG*dA*kG*kT*k[5mC]) [compound 799936]”, the “% Inhibition” value amounted to 44%. In the case of “799937 (antisense kT*k[5mC]*kT*dT*dT*dA*dA*dT*dT*dT*d[5mC]*dA*dG*kA*kG*kT) [compound 799937]”, the “% Inhibition” value turned out to be 24%. Still for that read-out and setting: the result for “799938 (antisense k[5mC]*kT*k[5mC]*dT*dA*dA*dA*d[5mC]*d[5mC]*dA*dA*d[5mC]*dT*kT*kT*kT) [compound 799938]” reads 17%; that for “799939 (antisense kG*k[5mC]*kA*dT*dT*dT*dA*dA*dT*dT*dT*dG*d[5mC]*kA*kA*k[5mC]) [compound 799939]”, 38%.

With “799950 (antisense kG*k[5mC]*kA*d[5mC]*dA*dA*dG*dT*d[5mC]*dA*d[5mC]*dT*dG*kG*k[5mC]*k[5mC]) [compound 799950]”, the “% Inhibition” value is 0%. On to “799951 (antisense kT*k[5mC]*kT*dT*dA*dA*dA*dA*dA*dA*dA*dG*dG*kG*kA*kG) [compound 799951]”, for which the “% Inhibition” value was 0%. “799952 (antisense k[5mC]*kT*k[5mC]*dT*dA*dA*dG*dT*dG*dG*d[5mC]*dT*d[5mC]*kA*kT*kG) [compound 799952]”: the “% Inhibition” value is reported as 30%. Take “799953 (antisense kA*kG*kA*dA*dA*dA*dT*dG*d[5mC]*d[5mC]*d[5mC]*dA*d[5mC]*k[5mC]*kA*kG) [compound 799953]”: the “% Inhibition” value turned out to be 0%.

Regarding “799954 (antisense k[5mC]*kA*kG*dA*dA*dA*dA*dT*dG*d[5mC]*d[5mC]*d[5mC]*dA*k[5mC]*k[5mC]*kA) [compound 799954]”, the “% Inhibition” value came to 42%. On to “799955 (antisense k[5mC]*kG*k[5mC]*dT*d[5mC]*dA*dG*dA*dA*dA*dA*dT*dG*k[5mC]*k[5mC]*k[5mC]) [compound 799955]”, for which the “% Inhibition” value worked out at 50%. Consider “799956 (antisense kT*k[5mC]*kT*d[5mC]*d[5mC]*dA*dG*d[5mC]*d[5mC]*dG*d[5mC]*dT*d[5mC]*kA*kG*kA) [compound 799956]”, for which the “% Inhibition” value was 57%. Still for that read-out and setting: the result for “799957 (antisense kT*k[5mC]*kT*dG*dA*dG*dG*d[5mC]*dT*d[5mC]*d[5mC]*dT*dG*kG*kG*kT) [compound 799957]” reads 11%; that for “799958 (antisense kG*kT*kG*dG*dA*dG*dA*dG*dT*dG*d[5mC]*dT*dG*k[5mC]*kA*k[5mC]) [compound 799958]”, 23%. With “799959 (antisense kA*kG*k[5mC]*dT*dT*dG*dT*dG*dG*dA*dG*dA*dG*kT*kG*k[5mC]) [compound 799959]”, the “% Inhibition” value is listed as 1%.

The same data set, now with this note: Hep3B cells, electroporation with 10,000 nM antisense oligonucleotide, approximately 24 hours, SMAD7 mRNA by RT-PCR (RTS5062), relative to untreated control cells.
For the substance “799920 (antisense kG*kA*kT*dG*dA*dA*dT*dG*d[5mC]*dT*d[5mC]*d[5mC]*dT*kA*kA*kG) [compound 799920]”, the “% Inhibition” value was 0%. Take “799922 (antisense kA*k[5mC]*kA*d[5mC]*dT*dA*dA*dT*dT*dA*dG*dT*dG*kA*k[5mC]*kT) [compound 799922]”: the “% Inhibition” value amounted to 15%.

For “799923 (antisense kG*k[5mC]*k[5mC]*dT*dA*d[5mC]*dA*dT*dA*dT*dT*dT*d[5mC]*kG*k[5mC]*kA) [compound 799923]”, the “% Inhibition” value worked out at 15%. Regarding “799924 (antisense k[5mC]*kA*kA*dG*d[5mC]*d[5mC]*dT*dA*d[5mC]*dA*dT*dA*dT*kT*kT*k[5mC]) [compound 799924]”, the “% Inhibition” value was 22%. Consider “799925 (antisense k[5mC]*k[5mC]*kA*dA*dG*d[5mC]*d[5mC]*dT*dA*d[5mC]*dA*dT*dA*kT*kT*kT) [compound 799925]”, for which the “% Inhibition” value was 10%.

On to “799926 (antisense k[5mC]*k[5mC]*k[5mC]*dA*dA*dG*d[5mC]*d[5mC]*dT*dA*d[5mC]*dA*dT*kA*kT*kT) [compound 799926]”, for which the “% Inhibition” value was 17%. “799927 (antisense kT*k[5mC]*k[5mC]*d[5mC]*dA*dA*dG*d[5mC]*d[5mC]*dT*dA*d[5mC]*dA*kT*kA*kT) [compound 799927]”: the “% Inhibition” value came out at 0%. For the substance “799928 (antisense k[5mC]*kT*k[5mC]*d[5mC]*d[5mC]*dA*dA*dG*d[5mC]*d[5mC]*dT*dA*d[5mC]*kA*kT*kA) [compound 799928]”, the “% Inhibition” value worked out at 7%. Take “799929 (antisense kT*kG*k[5mC]*d[5mC]*d[5mC]*dA*dG*dG*d[5mC]*dT*dT*dG*dG*kT*kT*k[5mC]) [compound 799929]”: the “% Inhibition” value is 9%. In the case of “799940 (antisense k[5mC]*kT*kT*dT*dG*dA*dG*dG*dA*dG*d[5mC]*dA*dG*kG*kG*kT) [compound 799940]”, the “% Inhibition” value is recorded as 50%. With “799941 (antisense kT*kT*kT*dA*d[5mC]*dT*dA*d[5mC]*d[5mC]*dT*dT*d[5mC]*d[5mC]*kA*kG*kA) [compound 799941]”, the “% Inhibition” value is listed as 44%. On to “799942 (antisense kA*kA*k[5mC]*dA*d[5mC]*dT*dG*dG*dT*dT*d[5mC]*d[5mC]*dA*kT*kT*kT) [compound 799942]”, for which the “% Inhibition” value came out at 0%.

“799943 (antisense kT*kG*k[5mC]*d[5mC]*d[5mC]*dT*d[5mC]*dT*d[5mC]*dA*dG*dG*dG*kT*k[5mC]*kT) [compound 799943]”: the “% Inhibition” value came to 0%. With “799944 (antisense k[5mC]*kT*kG*d[5mC]*dA*dG*d[5mC]*dA*dA*dG*dA*dA*dG*kT*kG*kG) [compound 799944]”, the “% Inhibition” value is 5%. Take “799945 (antisense kA*kG*k[5mC]*dT*dT*dT*dT*dA*dG*dA*dG*d[5mC]*dT*kG*k[5mC]*kG) [compound 799945]”: the “% Inhibition” value was 5%.

Consider “799946 (antisense kT*k[5mC]*kA*dG*dA*dA*d[5mC]*dA*d[5mC]*dA*d[5mC]*dT*dT*kT*kG*kG) [compound 799946]”, for which the “% Inhibition” value is reported as 2%. Turning to “799947 (antisense kT*k[5mC]*kT*dA*dA*dA*dG*d[5mC]*d[5mC]*dA*d[5mC]*d[5mC]*dA*kA*kG*k[5mC]) [compound 799947]”, the “% Inhibition” value amounted to 28%. Turning to “799948 (antisense kA*kT*kA*dT*dT*dG*d[5mC]*d[5mC]*dT*dG*dG*dT*dG*kT*kG*kA) [compound 799948]”, the “% Inhibition” value is 48%. The same measure, in the same setting: under “799949 (antisense kA*k[5mC]*kT*dG*dG*d[5mC]*d[5mC]*dG*dA*dA*dG*dT*dG*k[5mC]*kA*kG) [compound 799949]” stands 10%; under “799960 (antisense kA*kA*kA*d[5mC]*dA*dG*dG*dG*dT*dT*d[5mC]*d[5mC]*d[5mC]*k[5mC]*k[5mC]*kA) [compound 799960]”, 8%; under “799961 (antisense k[5mC]*k[5mC]*kT*dA*dA*dA*dA*d[5mC]*dA*dG*dG*dG*dT*kT*k[5mC]*k[5mC]) [compound 799961]”, 20%. As to “799962 (antisense k[5mC]*k[5mC]*kA*dA*d[5mC]*d[5mC]*d[5mC]*d[5mC]*dA*dG*dA*dG*dG*kT*kG*kA) [compound 799962]”, the “% Inhibition” value was found to be 0%.

Consider “799963 (antisense kA*kG*k[5mC]*d[5mC]*dA*dT*dG*dG*d[5mC]*dA*dG*dA*dA*k[5mC]*k[5mC]*k[5mC]) [compound 799963]”, for which the “% Inhibition” value is recorded as 6%. Still for that read-out and setting: under “799965 (antisense k[5mC]*kT*k[5mC]*d[5mC]*dA*dG*dT*dG*dA*dA*dG*dT*dG*kA*kG*kA) [compound 799965]” stands 0%; under “799966 (antisense kG*kT*kG*dG*dA*dA*dG*dG*d[5mC]*dT*dG*dA*d[5mC]*k[5mC]*kT*kG) [compound 799966]”, 35%.
